Laboratory results: US10005736B1, “Pyridine and pyrimidine derivatives” (Hoffmann-La Roche Inc., priority 2015, dated 2018)

Legend:
[1] = target: T1, human EAAT3 (Homo sapiens, UniProt P43005); test: FLIPR Membrane Potential (FMP) assay, antagonist potency at human EAAT3; format: cell-based; conditions: HEK-293 cells stably expressing human EAAT3; L-glutamate as agonist at EC80; antagonists applied 15 min before; Kb by Cheng-Prusoff from IC50
T1 construct: expressed in transfected cells; host or cells: HEK-293
T1 sequence (P43005 1-524): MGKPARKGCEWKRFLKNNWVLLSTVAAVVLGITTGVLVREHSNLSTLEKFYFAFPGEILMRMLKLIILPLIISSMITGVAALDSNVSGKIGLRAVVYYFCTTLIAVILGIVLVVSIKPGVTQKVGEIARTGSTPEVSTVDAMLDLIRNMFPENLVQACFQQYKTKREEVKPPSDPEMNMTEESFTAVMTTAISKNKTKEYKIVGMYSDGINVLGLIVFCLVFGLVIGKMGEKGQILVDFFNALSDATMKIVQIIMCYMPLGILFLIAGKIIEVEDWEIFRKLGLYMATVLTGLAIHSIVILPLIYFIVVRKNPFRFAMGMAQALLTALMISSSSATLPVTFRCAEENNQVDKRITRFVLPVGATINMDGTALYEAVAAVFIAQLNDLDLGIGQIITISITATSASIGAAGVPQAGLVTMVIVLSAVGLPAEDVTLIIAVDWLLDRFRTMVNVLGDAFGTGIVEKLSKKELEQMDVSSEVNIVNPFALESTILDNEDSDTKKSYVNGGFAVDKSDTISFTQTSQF
Procedure: The FLIPR Membrane Potential (FMP) Assay
HEK-293 cells stably expressing human EAAT3 were seeded at 55 000 cells/well in growth medium (DMEM glutamate free (Invitrogen 11960-044), 1% Pen Strep (10 ml/1 GIBCO BRL N^o 15140-023), 10% FCS non dialysed heat inactivated, 5 mg/l puromycin) in poly-D-lysine treated 96-well black microtiter plates with clear-bottom. After 24 h, the growth medium was removed and […] of Krebs buffer (140 mM NaCl, 4.7 mM KCl, 2.5 mM CaCl2, 1.2 mM MgCl2, 11 mM HEPES, 10 mM D-glucose, pH=7.4) added. The cells were then loaded by adding 100 μl/well FMP assay dye (FLIPR Membrane Potential assay reagent, Molecular Devices). The 96-well plates were then incubated at 37° C. for 1 h. The depolarization of the cells will cause more dye to enter in the cells, where it will bind to intracellular proteins and lipids and cause an increase in the fluorescence signal. Antagonist potency at human EAAT3 was determined by using L-glutamate as agonist at a concentration which gives 80% of the maximum response. The antagonists were applied 15 min before the application of the agonist L-glutamate. The assays were performed at room temperature and measurements done by using a Fluorometric Imaging Plate Reader (FLIPR, Molecular Devices) and filter #2. Responses were measured as peak increase in fluorescence minus basal (i.e. fluorescence without addition of L-glutamate). Kb was determined using the Cheng-Prusoff equation Kb=IC50/[1+(A/EC50)], where IC50 is the concentration of the antagonist producing 50% inhibition, A is the concentration of the agonist against which the IC50 is being determined (at EC80) and EC50 is the concentration of the agonist producing 50% […].

| Kb [1] | melting point | SMILES |
| --- | --- | --- |
| 325 nM |  | CCC(C)(C)NC(=O)c1cc(-c2ccc(C)cc2)cc(-c2cccnc2)c1 [Example 1, N-(2-Methylbutan-2-yl)-3-(4-methylphenyl)-5-pyridin-3-ylbenzamide] |
| 220 nM |  | CCC(C)(C)NC(=O)c1cc(-c2ccc(C)cc2)cc(-c2cncnc2)c1 [Example 2, N-(2-Methylbutan-2-yl)-3-(4-methylphenyl)-5-pyrimidin-5-ylbenzamide] |
| 230 nM |  | CCC(C)(C)NC(=O)c1cc(-c2ccc(C)cc2)cc(-c2cncnc2C(C)C)c1 [Example 3, N-(2-Methylbutan-2-yl)-3-(4-methylphenyl)-5-(4-propan-2-ylpyrimidin-5-yl)-benzamide] |
| 290 nM |  | CCC(C)(C)NC(=O)c1cc(-c2ccc(C)cc2)cc(-c2cnccc2C)c1 [Example 4, N-(2-Methylbutan-2-yl)-3-(4-methylphenyl)-5-(4-methylpyridin-3-yl)-benzamide] |
| 250 nM |  | CCC(C)(C)NC(=O)c1cc(-c2ccc(C)cc2)cc(-c2cccnc2C)c1 [Example 5, N-(2-Methylbutan-2-yl)-3-(4-methylphenyl)-5-(2-methylpyridin-3-yl)-benzamide] |
| 380 nM |  | CCC(C)(C)NC(=O)c1cc(-c2ccc(C)cc2)cc(-c2cnccc2C(C)C)c1 [Example 6, N-(2-Methylbutan-2-yl)-3-(4-methylphenyl)-5-(4-propan-2-ylpyridin-3-yl)-benzamide] |
| 310 nM |  | Cc1ccncc1-c1cc(C(=O)NC(C)(C)C)cc(-c2ccc(Cl)cc2)c1 [Example 7, N-tert-Butyl-3-(4-chlorophenyl)-5-(4-methylpyridin-3-yl)-benzamide] |
| 570 nM |  | CCC(C)(C)NC(=O)c1cc(-c2ccc(C)cc2)cc(-c2cccnc2C(C)C)c1 [Example 14, N-(2-Methylbutan-2-yl)-3-(4-methylphenyl)-5-(2-propan-2-ylpyridin-3-yl)-benzamide] |
| 630 nM |  | CC(C)c1ncccc1-c1cc(C(=O)NC(C)(C)C)cc(-c2ccc(Cl)cc2)c1 [Example 15, N-tert-Butyl-3-(4-chlorophenyl)-5-(2-propan-2-ylpyridin-3-yl)-benzamide] |
| 640 nM |  | Cc1ncccc1-c1cc(C(=O)NC(C)(C)C2CC2)cc(-c2ccc(Cl)cc2)c1 [Example 17, 3-(4-Chlorophenyl)-N-(2-cyclopropylpropan-2-yl)-5-(2-methylpyridin-3-yl)-benzamide] |
| 340 nM |  | Cc1ncccc1-c1cc(C(=O)NC(C)(C)C(F)(F)F)cc(-c2ccc(Cl)cc2)c1 [Example 19, 3-(4-Chlorophenyl)-5-(2-methylpyridin-3-yl)-N-(1,1,1-trifluoro-2-methylpropan-2-yl)-benzamide] |
| 200 nM | 83 °C | Cc1ccncc1-c1cc(C(=O)NC(C)(C)C)cc(-c2ccc(F)cc2)c1 [Example 21, N-tert-Butyl-3-(4-fluorophenyl)-5-(4-methylpyridin-3-yl)-benzamide] |
|  | 192 °C | Cc1ncncc1-c1cc(C(=O)NC(C)(C)C)cc(-c2ccc(Cl)cc2)c1 [Example 41, N-tert-Butyl-3-(4-chlorophenyl)-5-(4-methyl-pyrimidin-5-yl)-benzamide] |

Further lines, the compound ahead of its results:

| SMILES | Kb [1] | melting point |
| --- | --- | --- |
| CC(C)c1ncncc1-c1cc(C(=O)NC2(C)CCS(=O)(=O)C2)cc(-c2ccc(Cl)cc2)c1 (racemic) [Example 12, (RS)-3-(4-Chlorophenyl)-N-(3-methyl-1,1-dioxothiolan-3-yl)-5-(4-propan-2-ylpyrimidin-5-yl)-benzamide] | 310 nM |  |
| Cc1ncccc1-c1cc(C(=O)NC2(C)CCS(=O)(=O)C2)cc(-c2ccc(Cl)cc2)c1 (racemic) [Example 13, (RS)-3-(4-Chlorophenyl)-N-(3-methyl-1,1-dioxothiolan-3-yl)-5-(2-methyl-pyridin-3-yl)-benzamide] | 510 nM |  |
| CC(C)(C)NC(=O)c1cc(-c2ccc(Cl)cc2)cc(-c2cccnc2)c1 [Example 8, N-tert-Butyl-3-(4-chlorophenyl)-5-pyridin-3-ylbenzamide] | 350 nM | 177 °C |
| CC(C)c1ccncc1-c1cc(C(=O)NC(C)(C)C)cc(-c2ccc(Cl)cc2)c1 [Example 9, N-tert-Butyl-3-(4-chlorophenyl)-5-(4-propan-2-ylpyridin-3-yl)-benzamide] | 540 nM | 148 °C |
| CC(C)(C)NC(=O)c1cc(-c2ccc(Cl)cc2)cc(-c2cncnc2)c1 [Example 10, N-tert-Butyl-3-(4-chlorophenyl)-5-pyrimidin-5-ylbenzamide] | 270 nM | 195 °C |
| CC(C)c1ncncc1-c1cc(C(=O)NC(C)(C)C)cc(-c2ccc(Cl)cc2)c1 [Example 11, N-tert-Butyl-3-(4-chlorophenyl)-5-(4-propan-2-ylpyrimidin-5-yl)-benzamide] | 230 nM | 182 °C |
| CC(C)c1ncncc1-c1cc(C(=O)NC(C)(C)C2CC2)cc(-c2ccc(Cl)cc2)c1 [Example 16, 3-(4-Chlorophenyl)-N-(2-cyclopropylpropan-2-yl)-5-(4-propan-2-ylpyrimidin-5-yl)-benzamide] | 420 nM |  |
| CC(C)c1ncncc1-c1cc(C(=O)NC(C)(C)C(F)(F)F)cc(-c2ccc(Cl)cc2)c1 [Example 18, 3-(4-Chlorophenyl)-5-(4-propan-2-ylpyrimidin-5-yl)-N-(1,1,1-trifluoro-2-methylpropan-2-yl)-benzamide] | 250 nM | 170 °C |
| CC(C)c1ncncc1-c1cc(C(=O)NC(C)(C)C)cc(-c2ccc(F)cc2)c1 [Example 20, N-tert-Butyl-3-(4-fluorophenyl)-5-(4-propan-2-ylpyrimidin-5-yl)-benzamide] | 81 nM | 79 °C |
| CC(C)c1ncncc1-c1cc(C(=O)NC(C)(C)C2CC2)cc(-c2ccc(F)cc2)c1 [Example 22, N-(2-Cyclopropylpropan-2-yl)-3-(4-fluorophenyl)-5-(4-propan-2-ylpyrimidin-5-yl)-benzamide] | 57 nM | 74 °C |
| CC(C)(C)NC(=O)c1cc(-c2ccc(Cl)cc2)cc(-c2cncnc2C(C)(C)C)c1 [Example 42, N-tert-Butyl-3-(4-tert-butyl-pyrimidin-5-yl)-5-(4-chlorophenyl)-benzamide] |  | 108 °C |
| CC(C)c1ncncc1-c1cc(C(=O)NC(C)(C)CO)cc(-c2ccc(Cl)cc2)c1 [Example 43, 3-(4-Chlorophenyl)-N-(1-hydroxy-2-methylpropan-2-yl)-5-(4-propan-2-yl-pyrimidin-5-yl)-benzamide] |  | 86 °C |
| CC(C)c1ncncc1-c1cc(C(=O)NC(C)(C)CO)cc(-c2ccc(F)cc2)c1 [Example 44, 3-(4-Fluorophenyl)-N-(1-hydroxy-2-methylpropan-2-yl)-5-(4-propan-2-yl-pyrimidin-5-yl)-benzamide] |  | 63 °C |
| CC(C)c1ncncc1-c1cc(C(=O)NC(C)(C)CO)cc(-c2ccc(C(F)(F)F)cc2)c1 [Example 45, N-(1-Hydroxy-2-methylpropan-2-yl)-3-(4-propan-2-yl-pyrimidin-5-yl)-5-[4-(trifluoromethyl)-phenyl]-benzamide] |  | 80 °C |
| CC(C)(C)NC(=O)c1cc(-c2ccc(F)c(F)c2)cc(-c2cncnc2C(C)(C)C)c1 [Example 48, N-tert-Butyl-3-(4-tert-butyl-primidin-5-yl)-5-(3,4-difluorophenyl)-benzamide] |  | 99 °C |
| CC(C)(C)NC(=O)c1cc(-c2ccc(C(F)(F)F)cc2)cc(-c2cncnc2C(C)(C)C)c1 [Example 49, N-tert-Butyl-3-(4-tert-butyl-pyrimidin-5-yl)-5-[4-(trifluoromethyl)-phenyl]-benzamide] |  | 91 °C |
| CC(C)(C)NC(=O)c1cc(-c2ccc(F)cc2)cc(-c2cncnc2C(C)(C)C)c1 [Example 51, N-tert-Butyl-3-(4-tert-butyl-pyrimidin-5-yl)-5-(4-fluorophenyl)-benziimide] |  | 102 °C |
| CC(C)(C)NC(=O)c1cc(-c2ccc(Cl)cc2)cc(-c2cnccc2C(C)(C)C)c1 [Example 53, N-tert-Butyl-3-(4-tert-butylpyridin-3-yl)-5-(4-chlorophenyl)-benzamide] |  | 63.5 °C |
